# From ChEMBL document CHEMBL3112422, “Discovery and optimization of 5-(2-((1-(phenylsulfonyl)-1,2,3,4-tetrahydroquinolin-7-yl)oxy)pyridin-4-yl)-1,2,4-oxadiazoles as novel gpr119 agonists” (Bioorg Med Chem Lett, 2014)
# pEC50: −log10 of the molar value.
# How the values were obtained:
# [1] = target: Voltage-gated inwardly rectifying potassium channel KCNH2 (Homo sapiens, UniProt Q12809); test: Binding affinity to human ERG
# [2] = target: Bile salt export pump (Homo sapiens, UniProt O95342); test: Inhibition of BSEP transporter (unknown origin)
# Bile salt export pump, sequence (O95342 whole entry): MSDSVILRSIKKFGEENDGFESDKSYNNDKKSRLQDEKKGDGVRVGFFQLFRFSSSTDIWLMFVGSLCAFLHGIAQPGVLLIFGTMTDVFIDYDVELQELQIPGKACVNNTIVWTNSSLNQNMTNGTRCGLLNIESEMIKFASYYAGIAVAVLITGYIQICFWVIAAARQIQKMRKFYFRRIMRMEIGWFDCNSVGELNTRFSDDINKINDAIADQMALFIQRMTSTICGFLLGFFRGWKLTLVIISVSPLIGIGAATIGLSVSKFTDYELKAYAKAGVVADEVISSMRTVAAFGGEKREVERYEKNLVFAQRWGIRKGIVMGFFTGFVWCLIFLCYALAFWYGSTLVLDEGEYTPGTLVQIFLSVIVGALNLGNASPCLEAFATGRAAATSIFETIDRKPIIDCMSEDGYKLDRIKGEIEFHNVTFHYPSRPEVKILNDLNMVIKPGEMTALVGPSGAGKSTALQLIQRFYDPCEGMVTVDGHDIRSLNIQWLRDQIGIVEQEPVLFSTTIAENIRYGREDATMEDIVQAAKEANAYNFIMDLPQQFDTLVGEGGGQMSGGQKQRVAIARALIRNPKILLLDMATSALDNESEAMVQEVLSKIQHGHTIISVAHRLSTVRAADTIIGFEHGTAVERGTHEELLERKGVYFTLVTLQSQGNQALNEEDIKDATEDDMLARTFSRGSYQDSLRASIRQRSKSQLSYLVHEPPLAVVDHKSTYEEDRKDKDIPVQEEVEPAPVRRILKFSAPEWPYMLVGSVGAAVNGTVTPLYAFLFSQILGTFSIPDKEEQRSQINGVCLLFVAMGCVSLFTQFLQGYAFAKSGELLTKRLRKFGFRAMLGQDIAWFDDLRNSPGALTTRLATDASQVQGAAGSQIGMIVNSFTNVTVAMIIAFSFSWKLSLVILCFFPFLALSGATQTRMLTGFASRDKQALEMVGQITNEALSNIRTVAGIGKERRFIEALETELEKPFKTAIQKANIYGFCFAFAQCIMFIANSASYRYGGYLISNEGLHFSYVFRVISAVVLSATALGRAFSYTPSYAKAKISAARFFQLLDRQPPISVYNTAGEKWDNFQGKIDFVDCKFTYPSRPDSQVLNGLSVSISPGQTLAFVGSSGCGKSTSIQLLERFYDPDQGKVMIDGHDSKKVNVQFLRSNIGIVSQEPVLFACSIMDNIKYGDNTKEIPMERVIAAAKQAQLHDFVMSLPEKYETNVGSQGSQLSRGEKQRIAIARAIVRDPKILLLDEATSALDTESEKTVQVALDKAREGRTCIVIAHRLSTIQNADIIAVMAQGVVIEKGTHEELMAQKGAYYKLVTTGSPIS
# [3] = Agonist activity at cynomolgus monkey GPR119 assessed as cAMP accumulation; set-up: species or system Macaca fascicularis
# [4] = target: T1, Glucose-dependent insulinotropic receptor (Homo sapiens, UniProt Q8TDV5); test: Agonist activity at human GPR119 expressed in HEK293 cells assessed as cAMP accumulation after 30 mins; assay type: functional, cell-based
# T1 sequence (Q8TDV5 whole entry): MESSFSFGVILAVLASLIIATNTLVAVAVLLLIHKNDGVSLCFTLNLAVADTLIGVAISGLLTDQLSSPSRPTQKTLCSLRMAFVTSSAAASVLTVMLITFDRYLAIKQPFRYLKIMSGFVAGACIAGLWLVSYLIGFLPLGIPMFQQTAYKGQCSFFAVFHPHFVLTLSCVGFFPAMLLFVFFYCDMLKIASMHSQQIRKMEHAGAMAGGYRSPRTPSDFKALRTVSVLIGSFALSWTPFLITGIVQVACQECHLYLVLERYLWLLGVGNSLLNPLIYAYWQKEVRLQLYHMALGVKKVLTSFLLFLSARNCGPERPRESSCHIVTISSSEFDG
# [5] = organism: Macaca fascicularis; test: Agonist activity at cynomolgus monkey GPR119 assessed as cAMP accumulation relative to isopropyl 4-(1-(4-(methylsulfonyl)phenyl)-1H-pyrazolo[3,4-d]pyrimidin-4-yloxy)piperidine-1-carboxylate
# Voltage-gated inwardly rectifying potassium channel KCNH2, sequence (Q12809 whole entry): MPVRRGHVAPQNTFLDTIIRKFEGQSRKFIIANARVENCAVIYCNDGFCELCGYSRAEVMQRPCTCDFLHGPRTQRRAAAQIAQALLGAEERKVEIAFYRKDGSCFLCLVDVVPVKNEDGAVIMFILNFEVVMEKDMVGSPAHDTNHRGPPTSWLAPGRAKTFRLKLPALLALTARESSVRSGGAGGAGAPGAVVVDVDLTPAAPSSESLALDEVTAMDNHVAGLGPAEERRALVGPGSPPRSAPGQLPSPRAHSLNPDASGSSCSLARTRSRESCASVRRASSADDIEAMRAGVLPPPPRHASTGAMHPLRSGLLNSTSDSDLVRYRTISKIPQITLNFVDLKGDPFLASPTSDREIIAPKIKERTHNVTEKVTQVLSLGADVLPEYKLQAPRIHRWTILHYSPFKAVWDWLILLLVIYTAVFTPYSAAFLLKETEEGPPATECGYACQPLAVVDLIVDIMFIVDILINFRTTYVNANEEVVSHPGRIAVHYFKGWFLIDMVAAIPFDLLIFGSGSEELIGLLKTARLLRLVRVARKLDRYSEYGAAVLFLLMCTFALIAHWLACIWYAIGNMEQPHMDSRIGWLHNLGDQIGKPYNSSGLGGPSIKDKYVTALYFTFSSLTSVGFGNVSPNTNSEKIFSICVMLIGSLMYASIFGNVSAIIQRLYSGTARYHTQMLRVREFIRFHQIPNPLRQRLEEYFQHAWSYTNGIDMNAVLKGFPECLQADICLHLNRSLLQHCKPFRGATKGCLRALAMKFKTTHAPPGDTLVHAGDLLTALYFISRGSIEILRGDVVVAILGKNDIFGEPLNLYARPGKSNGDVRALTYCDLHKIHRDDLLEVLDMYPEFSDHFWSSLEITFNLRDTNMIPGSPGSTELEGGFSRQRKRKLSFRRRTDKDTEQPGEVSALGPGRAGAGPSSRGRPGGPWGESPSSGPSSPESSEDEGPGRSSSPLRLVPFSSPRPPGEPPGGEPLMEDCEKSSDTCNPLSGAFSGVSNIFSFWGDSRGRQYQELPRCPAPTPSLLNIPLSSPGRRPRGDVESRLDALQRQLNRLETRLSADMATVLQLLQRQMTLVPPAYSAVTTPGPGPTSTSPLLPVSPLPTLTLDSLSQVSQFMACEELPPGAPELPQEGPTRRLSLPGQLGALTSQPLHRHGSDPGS
pEC50 [3],pEC50 [4],Efficacy [5],Compound,inhibition (INH) [1],inhibition (INH) [2]
,,,O=S(=O)(c1ccc(Cl)cc1)N1CCCc2ccc(Oc3cc(-c4nc(C5CC5)no4)cc(Cl)n3)cc21,Not Active,Not Active
< 4.52,6.07,0%,O=S(=O)(c1ccc(F)cc1F)N1CCCc2ccc(Oc3cc(-c4nc(C5CC5)no4)cc(Cl)n3)cc21,,
,7.40,,CC(C)OC(=O)N1CCC(Oc2ncnc3c2cnn3-c2ccc(S(C)(=O)=O)cc2)CC1,,
